# Test results from PubChem BioAssay (NCI).
#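 Exposure lasted 48 hours, with cells grown in 96-well plates and compounds tested at five concentrations. GI50 marks 50% less growth. TGI is the concentration that stops growth completely.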
# Experiments:
# Test in all cases: inhibition of tumour cell growth, NCI panel, 48 h
# LOX IMVI melanoma = tested on: LOX IMVI melanoma
# RXF 393 renal = tested on: RXF 393 renal
# SNB-75 CNS = tested on: SNB-75 CNS
# A498 renal = tested on: A498 renal
# SN12C renal = tested on: SN12C renal
# KM12 colon = tested on: KM12 colon
# SF-295 CNS = tested on: SF-295 CNS
# HOP-62 NSCLC = tested on: HOP-62 NSCLC
# ACHN renal = tested on: ACHN renal
# SNB-19 CNS = tested on: SNB-19 CNS
# TK-10 renal = tested on: TK-10 renal
# SF-268 CNS = tested on: SF-268 CNS
# HCC-2998 colon = tested on: HCC-2998 colon
# HS 578T breast = tested on: HS 578T breast
# HCT-15 colon = tested on: HCT-15 colon
# M14 melanoma = tested on: M14 melanoma
# OVCAR-8 ovarian = tested on: OVCAR-8 ovarian
# UACC-257 melanoma = tested on: UACC-257 melanoma
# RPMI-8226 leukemia = tested on: RPMI-8226 leukemia
# OVCAR-4 ovarian = tested on: OVCAR-4 ovarian
# U251 CNS = tested on: U251 CNS
# UO-31 renal = tested on: UO-31 renal
# K-562 leukemia = tested on: K-562 leukemia
# HL-60(TB) leukemia = tested on: HL-60(TB) leukemia
# SR leukemia = tested on: SR leukemia
# MOLT-4 leukemia = tested on: MOLT-4 leukemia
# NCI-H23 lung = tested on: NCI-H23 lung
# SK-MEL-28 melanoma = tested on: SK-MEL-28 melanoma
# HCT-116 colon = tested on: HCT-116 colon
# MDA-MB-435 = tested on: MDA-MB-435
# OVCAR-3 ovarian = tested on: OVCAR-3 ovarian
# MCF7 breast = tested on: MCF7 breast
# NCI/ADR-RES ovarian = tested on: NCI/ADR-RES ovarian
# SK-OV-3 ovarian = tested on: SK-OV-3 ovarian
# NCI-H522 lung = tested on: NCI-H522 lung
# COLO 205 colon = tested on: COLO 205 colon
# CAKI-1 renal = tested on: CAKI-1 renal
# OVCAR-5 ovarian = tested on: OVCAR-5 ovarian
# BT-549 breast = tested on: BT-549 breast
# CCRF-CEM leukemia = tested on: CCRF-CEM leukemia
# A549 NSCLC = tested on: A549 NSCLC
# MALME-3M melanoma = tested on: MALME-3M melanoma
# NCI-H460 lung = tested on: NCI-H460 lung
# SK-MEL-5 melanoma = tested on: SK-MEL-5 melanoma
# MDA-MB-231 breast = tested on: MDA-MB-231 breast
# SW-620 colon = tested on: SW-620 colon
# SK-MEL-2 melanoma = tested on: SK-MEL-2 melanoma
# SF-539 CNS = tested on: SF-539 CNS
# IGROV1 ovarian = tested on: IGROV1 ovarian
# NCI-H226 lung = tested on: NCI-H226 lung
# 786-0 renal = tested on: 786-0 renal
# T-47D breast = tested on: T-47D breast
# EKVX NSCLC = tested on: EKVX NSCLC
# PC-3 prostate = tested on: PC-3 prostate
# UACC-62 melanoma = tested on: UACC-62 melanoma
# HOP-92 NSCLC = tested on: HOP-92 NSCLC
# HT29 colon = tested on: HT29 colon
# DU-145 prostate = tested on: DU-145 prostate
smiles,measurement,setting,value
O=C1/C(=C/c2ccc(Cl)cc2)COc2ccc(O)cc21,GI50,LOX IMVI melanoma,1.74 µM
same,TGI,LOX IMVI melanoma,3.18 µM
same,GI50,RXF 393 renal,1.83 µM
same,TGI,RXF 393 renal,3.45 µM
same,GI50,SNB-75 CNS,12.5 µM
same,TGI,SNB-75 CNS,26.3 µM
same,GI50,A498 renal,13.9 µM
same,TGI,A498 renal,27.7 µM
same,GI50,SN12C renal,1.86 µM
same,TGI,SN12C renal,4.22 µM
same,GI50,KM12 colon,2.04 µM
same,TGI,KM12 colon,4.46 µM
same,GI50,SF-295 CNS,14.5 µM
same,TGI,SF-295 CNS,30 µM
same,GI50,HOP-62 NSCLC,6.31 µM
same,TGI,HOP-62 NSCLC,22.5 µM
same,GI50,ACHN renal,2.39 µM
same,TGI,ACHN renal,5.68 µM
same,GI50,SNB-19 CNS,2.16 µM
same,TGI,SNB-19 CNS,5.18 µM
same,GI50,TK-10 renal,3.33 µM
same,TGI,TK-10 renal,13.4 µM
same,GI50,SF-268 CNS,3.29 µM
same,TGI,SF-268 CNS,16.7 µM
same,GI50,HCC-2998 colon,1.82 µM
same,TGI,HCC-2998 colon,3.33 µM
same,GI50,HS 578T breast,3.22 µM
same,TGI,HS 578T breast,18.1 µM
same,GI50,HCT-15 colon,1.84 µM
same,TGI,HCT-15 colon,4.04 µM
same,GI50,M14 melanoma,2.33 µM
same,TGI,M14 melanoma,6.31 µM
same,GI50,OVCAR-8 ovarian,3 µM
same,TGI,OVCAR-8 ovarian,11 µM
same,GI50,UACC-257 melanoma,3.16 µM
same,TGI,UACC-257 melanoma,13 µM
same,GI50,RPMI-8226 leukemia,0.302 µM
same,TGI,RPMI-8226 leukemia,0.905 µM
same,GI50,OVCAR-4 ovarian,3.83 µM
same,TGI,OVCAR-4 ovarian,16.3 µM
same,GI50,U251 CNS,1.52 µM
same,TGI,U251 CNS,2.84 µM
same,GI50,UO-31 renal,1.61 µM
same,TGI,UO-31 renal,3.99 µM
same,GI50,K-562 leukemia,2.55 µM
same,TGI,K-562 leukemia,25.8 µM
same,GI50,HL-60(TB) leukemia,1.36 µM
same,TGI,HL-60(TB) leukemia,4.36 µM
same,GI50,SR leukemia,0.663 µM
same,TGI,SR leukemia,5.3 µM
same,GI50,MOLT-4 leukemia,1.84 µM
same,TGI,MOLT-4 leukemia,8.23 µM
same,GI50,NCI-H23 lung,2.21 µM
same,TGI,NCI-H23 lung,5.16 µM
same,GI50,SK-MEL-28 melanoma,2.07 µM
same,TGI,SK-MEL-28 melanoma,4.33 µM
same,GI50,HCT-116 colon,1.61 µM
same,TGI,HCT-116 colon,3.08 µM
same,GI50,MDA-MB-435,2.77 µM
same,TGI,MDA-MB-435,8.2 µM
same,GI50,OVCAR-3 ovarian,1.84 µM
same,TGI,OVCAR-3 ovarian,3.55 µM
same,GI50,MCF7 breast,1.41 µM
same,TGI,MCF7 breast,2.96 µM
same,GI50,NCI/ADR-RES ovarian,2.99 µM
same,TGI,NCI/ADR-RES ovarian,9.13 µM
same,GI50,SK-OV-3 ovarian,14 µM
same,TGI,SK-OV-3 ovarian,44.5 µM
same,GI50,NCI-H522 lung,1.72 µM
same,TGI,NCI-H522 lung,3.5 µM
same,GI50,COLO 205 colon,1.86 µM
same,TGI,COLO 205 colon,4.63 µM
same,GI50,CAKI-1 renal,2.02 µM
same,TGI,CAKI-1 renal,5.3 µM
same,GI50,OVCAR-5 ovarian,2.44 µM
same,TGI,OVCAR-5 ovarian,6.81 µM
same,GI50,BT-549 breast,3.34 µM
same,TGI,BT-549 breast,11.5 µM
same,GI50,CCRF-CEM leukemia,0.291 µM
same,TGI,CCRF-CEM leukemia,1.82 µM
same,GI50,A549 NSCLC,9.28 µM
same,TGI,A549 NSCLC,30.7 µM
same,GI50,MALME-3M melanoma,2.37 µM
same,TGI,MALME-3M melanoma,6.08 µM
same,GI50,NCI-H460 lung,3.32 µM
same,TGI,NCI-H460 lung,11.2 µM
same,GI50,SK-MEL-5 melanoma,2.32 µM
same,TGI,SK-MEL-5 melanoma,5.37 µM
same,GI50,MDA-MB-231 breast,2.73 µM
same,TGI,MDA-MB-231 breast,8.62 µM
same,GI50,SW-620 colon,1.87 µM
same,TGI,SW-620 colon,4.26 µM
same,GI50,SK-MEL-2 melanoma,12.3 µM
same,TGI,SK-MEL-2 melanoma,28.5 µM
same,GI50,SF-539 CNS,1.8 µM
same,TGI,SF-539 CNS,3.56 µM
same,GI50,IGROV1 ovarian,1.67 µM
same,TGI,IGROV1 ovarian,3.31 µM
same,GI50,NCI-H226 lung,2.68 µM
same,TGI,NCI-H226 lung,7.61 µM
same,GI50,786-0 renal,2.04 µM
same,TGI,786-0 renal,4.58 µM
same,GI50,T-47D breast,2.22 µM
same,TGI,T-47D breast,5.59 µM
same,GI50,EKVX NSCLC,7.31 µM
same,TGI,EKVX NSCLC,20.4 µM
same,GI50,PC-3 prostate,2.15 µM
same,TGI,PC-3 prostate,5.14 µM
same,GI50,UACC-62 melanoma,2.23 µM
same,TGI,UACC-62 melanoma,5.46 µM
same,GI50,HOP-92 NSCLC,8.84 µM
same,TGI,HOP-92 NSCLC,37.6 µM
same,GI50,HT29 colon,2.67 µM
same,TGI,HT29 colon,6.61 µM
same,GI50,DU-145 prostate,3.69 µM
same,TGI,DU-145 prostate,13 µM
